Test results taken from patent US9518994B2, “Method for diagnosing and monitoring schizophrenia and tauopathies” (Ramot at Tel Aviv University, priority 2010, dated 2016).

Columns and labels:
[1] = system: cancer cell division; conditions: unlike paclitaxel; cited from earlier work
[2] = system: gestational day 8.0 mouse embryos; conditions: cited from earlier work
[3] = system: ADNP+/- mice; conditions: cited from earlier work
[4] = system: STOP+/- mice; conditions: daily nasal application; cited from earlier work
[5] = system: schizophrenia-related cognitive impairment; conditions: 5 mg once daily and 15 mg twice daily vs placebo, 56 patients; cited from earlier work
[6] = system: Cortical neurons co-cultured with PEE astrocytes; conditions: cited from earlier work
[7] = system: cerebellar granule neurons; conditions: cited from earlier work
[8] = system: astrocytes or neurons; conditions: cited from earlier work
[9] = system: amnestic MCI; conditions: 15 mg twice daily, intranasal, vs placebo; cited from earlier work
[10] = system: primary neuronal cell cultures; conditions: cited from earlier work
[11] = system: known cell surface receptors; experiment: Screening NAP on receptor panels; type: binding
Experimental: Fluorescent NAP was found inside cells, in the vicinity of microtubules when it was incubated with cells at 4° C. and at low pH (conditions that exclude receptor-mediated endocytocis) (I. Divinski et al. J Biol Chem 279, 28531-28538 (2004)). Furthermore, NAP activity is independent of its chirality (D. E. Brenneman et al. J Pharmacol Exp Ther 309, 1190-1197 (2004)) and NAP shares sequence similarities with protein sequences that have membrane permeability properties (I. Divinski et al. J Biol Chem 279, 28531-28538 (2004)).

[12] = system: phosphorylated tau; conditions: 12-month-old mice, intranasal ~0.07 mg/kg/day for 3 months; cited from earlier work
[13] = system: tau transgenic mice; conditions: daily intranasal treatment over several months; cited from earlier work
[14] = system: anti-ADNP (NAP) antibody; conditions: incubation of antibody with excess NAP peptide; cited from earlier work
[15] = system: P19 cells; experiment: P19 cell neuro-differentiation, Q-PCR of differentiation markers; type: cell-based, mouse; conditions: eight days differentiation, 1 μM RA; FIG. 2
Experimental: Mouse Embryonic teratocarcinoma cells were obtained from the American Type Culture Collection (ATCC, Bethesda, Md.); an initial control batch was a kind gift of Dr. Roi Atlas and Professor Irith Ginzburg, the Weizmann Institute of Science, Rehovot, Israel. P19 cells were grown in minimal essential medium (alpha-MEM) containing 5% fetal calf serum, 100 U/ml penicillin and 0.1 mg/ml streptomycin (Biological Industries, Beit Haemek, Israel) in a 5% CO2 incubator at 37° C. […]
Samples with same amount of total RNA were used to synthesize single-strand cDNA with SuperScript […] RNase H Reverse Transcriptase (Invitrogen, Carlsbad, Calif., USA) and a random hexamers adaptor primer according to the manufacturer's instructions. […] ADNP and ADNP2 expression levels in Schizophrenia were determined using specific primers for human ADNP and ADNP2, and normalized to TATA box binding protein. […] RNA from non-differentiated and differentiated P19 cells was isolated and the expression of tubulin β3 and glial fibrillary acidic protein (GFAP) was determined to confirm neuronal differentiation. ADNP and ADNP2 expression levels in P19 cells were determined using specific primers for mouse ADNP and ADNP2. […] The efficiencies of all primers used were calculated as a precursory step using standard curves, according to the equation: E (efficiency)=10^(−1/slope)−1×100 and were near 100% for all primers. […]

[16] = system: ADNP; experiment: Transgene shutoff by doxycycline in rTg(tau(P301L))4510 mice, western blots; type: in vivo, mouse; conditions: treated with doxycycline; untreated ratio is 3; FIG. 3D
Experimental: Nuclear ADNP expression was assessed using mouse monoclonal antibody directed against ADNP (1:300 dilution; BD Bioscience) at 150 KD, actin was used as a control. […] C. […] Tau expression was measured in the cytoplasmic fraction; ADNP was measured in nuclear fractions. D. Western blots showing expression level of ADNP in transgenic and non-transgenic mice after doxycycline treatment.

[17] = system: β-tubulin; conditions: NAP affinity columns; cited from earlier work
[18] = system: ADNP; conditions: 120 min 75% xenon and 25% oxygen vs 75% nitrogen and 25% oxygen; RT-PCR, western blot, immunohistochemistry; cited from earlier work
[19] = system: cell cultures; conditions: cited from earlier work

CC[C@H](C)[C@H](NC(=O)[C@H](CO)NC(=O)[C@@H](NC(=O)[C@@H]1CCCN1C(=O)[C@H](C)NC(=O)[C@@H](N)CC(N)=O)C(C)C)C(=O)N1CCC[C@H]1C(=O)N[C@@H](CCC(N)=O)C(=O)O [NAP, Asn-Ala-Pro-Val-Ser-Ile-Pro-Gln]
cancer cell division [1]: does not affect
percentage of embryos that had begun to close their neural folds ([2]; co-incubation with ethanol and NAP): significantly increased
alcohol-induced serotonergic loss during brain development ([2]; in vivo, caudal raphe): protected
cognitive deficits ([3]; 0.5 μg/mouse/day): partially ameliorated
tau hyperphosphorylation ([3]; 0.5 μg/mouse/day): reduced
amount of active GSK-3β ([3]; NAP treatment): reduced
object recognition [4]: significantly improved to STOP+/+ performance level
open field locomotor activity [4]: significantly decreased
spatial memory [4]: ameliorated
UCSD Performance-based Skills Assessment (UPSA) test, secondary endpoint [5]: statistically significant positive treatment effect
tests that measured visual learning and working memory [5]: Numerical positive treatment effects
verbal learning [5]: favoring placebo
dendritic and axonal growth or branching, density of synaptic structures ([6]; SNAP-25 and synaptophysin staining): significantly increased
CREB phosphorylation [6]: increase
activity of ERK and Akt ([6]; time-dependent): significantly stimulated
axon outgrowth ([7]; cerebellar granule neurons, via Fyn kinase and Cas phosphorylation): potentiated axon outgrowth
microtubule depolymerization by nocodazole ([8]; neurons): reversed
tubulin zinc sheet formation and cell death ([8]; treatment with zinc chloride): protected
cognitive tests that primarily assessed attention and working memory function [9]: general pattern of improvement
neurite outgrowth [10]: induced neurite outgrowth
binding to known cell surface receptors [11]: did not reveal any significant binding
decrease in phosphorylated tau at Ser202/Thr205 and Thr231 residues [12]: 70%
short-term memory [13]: improving
tau phosphorylation and "NFTs" [13]: reduced
reduction of fluorescence staining [14]: > 80%

CC1=C(/C=C/C(C)=C/C=C/C(C)=C/C(=O)O)C(C)(C)CCC1 [RA, all-trans retinoic acid]
glial fibrillar acidic protein (GFAP) expression, Q-PCR [15]: up-regulation
tubulinβ3 expression, Q-PCR [15]: up-regulation

C[C@H]1c2cccc(O)c2C(=O)C2=C(O)[C@]3(O)C(=O)C(C(N)=O)=C(O)[C@@H](N(C)C)[C@@H]3[C@@H](O)[C@@H]21 [doxycycline]
ADNP protein expression ratio between the Tg and non-Tg mice [16]: 1

CCO [ethanol]
IC50 ([7]; by inhibiting NAP activation of Fyn kinase and Cas, read-out: IC(50), block of NAP-mediated axon outgrowth): 17 mM

CC(=O)O[C@H]1C(=O)[C@@]2(C)[C@H]([C@H](OC(=O)c3ccccc3)[C@]3(O)C[C@H](OC(=O)[C@H](O)[C@@H](NC(=O)c4ccccc4)c4ccccc4)C(C)=C1C3(C)C)[C@]1(OC(C)=O)CO[C@@H]1C[C@@H]2O [paclitaxel]
NAP-tubulin interaction [17]: reduced

[Xe] [xenon]
ADNP expression in neonatal rat brain [18]: differentially expressed

B1: recombinant ADNP: recombinant activity-dependent neuroprotective protein (protein, UniProt Q9H2P0 1-1102, looked up)
Activity-dependent …: MFQLPVNNLGSLRKARKTVKKILSDIGLEYCKEHIEDFKQFEPNDFYLKNTTWEDVGLWDPSLTKNQDYRTKPFCCSACPFSSKFFSAYKSHFRNVHSEDFENRILLNCPYCTFNADKKTLETHIKIFHAPNASAPSSSLSTFKDKNKNDGLKPKQADSVEQAVYYCKKCTYRDPLYEIVRKHIYREHFQHVAAPYIAKAGEKSLNGAVPLGSNAREESSIHCKRCLFMPKSYEALVQHVIEDHERIGYQVTAMIGHTNVVVPRSKPLMLIAPKPQDKKSMGLPPRIGSLASGNVRSLPSQQMVNRLSIPKPNLNSTGVNMMSSVHLQQNNYGVKSVGQGYSVGQSMRLGLGGNAPVSIPQQSQSVKQLLPSGNGRSYGLGSEQRSQAPARYSLQSANASSLSSGQLKSPSLSQSQASRVLGQSSSKPAAAATGPPPGNTSSTQKWKICTICNELFPENVYSVHFEKEHKAEKVPAVANYIMKIHNFTSKCLYCNRYLPTDTLLNHMLIHGLSCPYCRSTFNDVEKMAAHMRMVHIDEEMGPKTDSTLSFDLTLQQGSHTNIHLLVTTYNLRDAPAESVAYHAQNNPPVPPKPQPKVQEKADIPVKSSPQAAVPYKKDVGKTLCPLCFSILKGPISDALAHHLRERHQVIQTVHPVEKKLTYKCIHCLGVYTSNMTASTITLHLVHCRGVGKTQNGQDKTNAPSRLNQSPSLAPVKRTYEQMEFPLLKKRKLDDDSDSPSFFEEKPEEPVVLALDPKGHEDDSYEARKSFLTKYFNKQPYPTRREIEKLAASLWLWKSDIASHFSNKRKKCVRDCEKYKPGVLLGFNMKELNKVKHEMDFDAEWLFENHDEKDSRVNASKTADKKLNLGKEDDSSSDSFENLEEESNESGSPFDPVFEVEPKISNDNPEEHVLKVIPEDASESEEKLDQKEDGSKYETIHLTEEPTKLMHNASDSEVDQDDVVEWKDGASPSESGPGSQQVSDFEDNTCEMKPGTWSDESSQSEDARSSKPAAKKKATMQGDREQLKWKNSSYGKVEGFWSKDQSQWKNASENDERLSNPQIEWQNSTIDSEDGEQFDNMTDGVAEPMHGSLAGVKLSSQQA
protection against severe oxidative stress and Aβ toxicity [19]: potent protection
